According to BindingDB's records for doi:10.1016/s0960-894x(00)00456-x (Australian National University, 2001):

Target: Leucine--tRNA ligase (Staphylococcus aureus)
Assay: Compound was evaluated for its inhibitory activity against Leucyl-tRNA synthetase from staphylococcus aureus WCUH29

## CC[C@H](C)[C@H](N)C(=O)NS(=O)(=O)CC(=O)N[C@]1(C(=O)OC)[C@@H]2CN(C)C=C(C(N)=O)[C@@H]2C[C@@H]1O [(4aR,6S,7R,7aS)-7-[2-((2S,3S)-2-Amino-3-methyl-pentanoylsulfamoyl)-acetylamino]-4-carbamoyl-6-hydroxy-2-methyl-2,4a,5,6,7,7a-hexahydro-1H-[2]pyrindine-7-carboxylic acid methyl ester]
  IC50: 186 µM
